One block for each molecule: values may come before it.
How the values were obtained:
[1] = target: C-X-C chemokine receptor type 4 (Homo sapiens, UniProt P61073); assay: Binding affinity to CXCR4 (unknown origin) assessed as inhibition constant
[2] = target: T1, C-X-C chemokine receptor type 3 (Homo sapiens, UniProt P49682); assay: Inhibition of human wild type CXCR3
T1 sequence (P49682 whole entry): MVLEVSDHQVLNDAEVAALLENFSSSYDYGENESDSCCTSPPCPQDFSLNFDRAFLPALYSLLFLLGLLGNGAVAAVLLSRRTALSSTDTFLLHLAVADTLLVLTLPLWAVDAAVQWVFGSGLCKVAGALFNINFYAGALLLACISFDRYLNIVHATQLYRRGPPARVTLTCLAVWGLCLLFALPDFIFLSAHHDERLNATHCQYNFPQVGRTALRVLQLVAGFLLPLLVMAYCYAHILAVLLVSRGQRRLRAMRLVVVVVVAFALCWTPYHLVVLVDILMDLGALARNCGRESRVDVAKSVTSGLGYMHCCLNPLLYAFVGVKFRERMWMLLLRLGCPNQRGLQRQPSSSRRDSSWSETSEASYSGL

[3] = target: T2, C-X-C chemokine receptor type 2 (Homo sapiens, UniProt P25025); assay: Binding affinity to wild type human CXCR2 assessed as dissociation constant
T2 sequence (P25025 whole entry): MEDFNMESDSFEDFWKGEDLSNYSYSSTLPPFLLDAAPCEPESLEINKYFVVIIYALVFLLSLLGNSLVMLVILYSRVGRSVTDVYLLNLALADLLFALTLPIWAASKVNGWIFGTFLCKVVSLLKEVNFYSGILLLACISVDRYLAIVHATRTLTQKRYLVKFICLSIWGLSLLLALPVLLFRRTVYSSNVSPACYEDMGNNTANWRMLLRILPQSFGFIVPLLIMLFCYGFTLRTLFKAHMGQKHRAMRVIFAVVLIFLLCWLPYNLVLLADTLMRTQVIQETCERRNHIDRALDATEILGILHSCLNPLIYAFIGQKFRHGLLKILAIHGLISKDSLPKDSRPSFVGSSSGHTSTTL

[4] = target: C-C chemokine receptor type 8 (Homo sapiens, UniProt P51685); assay: Inhibition of CCR8 mutant (unknown origin)
Chain of C-C chemokine receptor type 8 (P51685 whole entry, looked up, change not shown): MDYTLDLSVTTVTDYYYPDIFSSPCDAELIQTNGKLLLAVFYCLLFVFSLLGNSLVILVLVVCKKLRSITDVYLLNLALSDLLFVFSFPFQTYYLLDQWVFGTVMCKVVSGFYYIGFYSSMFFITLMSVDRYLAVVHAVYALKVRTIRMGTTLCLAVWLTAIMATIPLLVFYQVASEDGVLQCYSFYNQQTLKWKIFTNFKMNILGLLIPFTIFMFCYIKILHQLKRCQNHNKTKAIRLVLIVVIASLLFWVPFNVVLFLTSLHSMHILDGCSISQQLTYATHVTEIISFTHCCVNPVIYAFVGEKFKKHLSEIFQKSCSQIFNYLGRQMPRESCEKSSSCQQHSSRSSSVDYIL

[5] = target: T1, C-X-C chemokine receptor type 3; assay: Inhibition of human recombinant CXCR3
[6] = target: C-C chemokine receptor type 2 (Homo sapiens, UniProt P41597); assay: Binding affinity to CCR2 (unknown origin) assessed as inhibition constant
Chain of C-C chemokine receptor type 2 (P41597 whole entry): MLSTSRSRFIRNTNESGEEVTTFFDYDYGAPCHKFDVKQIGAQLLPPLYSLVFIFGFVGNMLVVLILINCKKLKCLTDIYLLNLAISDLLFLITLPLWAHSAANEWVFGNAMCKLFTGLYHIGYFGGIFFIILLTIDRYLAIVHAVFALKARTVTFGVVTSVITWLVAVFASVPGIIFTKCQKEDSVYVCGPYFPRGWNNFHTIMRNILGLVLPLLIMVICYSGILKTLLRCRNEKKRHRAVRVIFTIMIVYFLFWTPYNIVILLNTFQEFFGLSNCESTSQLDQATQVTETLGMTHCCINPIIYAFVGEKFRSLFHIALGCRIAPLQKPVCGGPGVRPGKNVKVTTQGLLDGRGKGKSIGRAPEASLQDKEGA

[7] = Inhibition of CXCR4-Y251A mutant (unknown origin); parameters: species or system Homo sapiens
[8] = Binding affinity to CXCR4-Y251A mutant (unknown origin) assessed as […]; parameters: species or system Homo sapiens
[9] = target: T3, C-C chemokine receptor type 5 (Homo sapiens, UniProt P51681); assay: Inhibition of wild type CCR5 (unknown origin)
T3 sequence (P51681 whole entry): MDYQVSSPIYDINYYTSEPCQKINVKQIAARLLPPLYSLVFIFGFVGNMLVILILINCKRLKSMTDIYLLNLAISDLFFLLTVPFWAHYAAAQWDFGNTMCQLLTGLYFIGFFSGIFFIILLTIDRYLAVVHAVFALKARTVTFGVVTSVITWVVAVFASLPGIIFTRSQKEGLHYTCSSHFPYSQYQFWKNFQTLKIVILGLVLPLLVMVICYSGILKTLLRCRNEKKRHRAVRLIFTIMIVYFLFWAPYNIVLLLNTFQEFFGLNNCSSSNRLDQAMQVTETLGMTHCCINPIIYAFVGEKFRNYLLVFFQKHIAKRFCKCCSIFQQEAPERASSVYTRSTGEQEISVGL

[10] = target: T3, C-C chemokine receptor type 5; assay: Inhibition of human CCR5

Chain of C-X-C chemokine receptor type 4 (P61073 whole entry): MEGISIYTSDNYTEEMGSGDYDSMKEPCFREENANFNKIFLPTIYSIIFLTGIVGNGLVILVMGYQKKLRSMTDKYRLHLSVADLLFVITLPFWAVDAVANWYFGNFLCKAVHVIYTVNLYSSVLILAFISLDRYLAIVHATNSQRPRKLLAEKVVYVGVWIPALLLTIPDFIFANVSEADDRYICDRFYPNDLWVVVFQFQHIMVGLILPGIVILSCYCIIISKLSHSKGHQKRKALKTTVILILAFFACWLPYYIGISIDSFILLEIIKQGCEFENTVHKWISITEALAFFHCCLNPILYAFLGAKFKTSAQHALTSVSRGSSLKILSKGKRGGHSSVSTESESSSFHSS

SMILES: CCCN(CCC)CCCCN(C)Cc1ccc(CN(Cc2ncc[nH]2)Cc2nccn2C)cc1
Ki [1]: 0.00061 µM

SMILES: NCCCC[C@H](NC(=O)[C@@H]1Cc2ccccc2CN1C(=O)CCC(=O)c1ccccc1)C(=O)NCC(c1ccccc1)c1ccccc1
IC50 [2]: 1 µM

SMILES: c1cc(CN2CCCNCCNCCCNCC2)cc(CN2CCCNCCNCCCNCC2)n1
Ki [1]: 0.85 µM

SMILES: CC[C@@H](NC1C(=O)C(=O)C1Nc1cccc(C(=O)N(C)C)c1O)c1ccc(C)o1 (some centres not stated)
Kd [3]: 10000 µM

SMILES: COc1ccccc1Oc1cccc(CN2CCC(O)(c3ccccc3C(=O)O)CC2)c1
pIC50 [4]: 7.5

SMILES: C[C@H](CO)Nc1nc(SCc2cccc(F)c2F)nc2[nH]c(=O)cnc12
Kd [3]: 1 µM

SMILES: CCOc1ccc(-n2c([C@@H](C)N(Cc3cccnc3)C(=O)Cc3ccc(F)c(C(F)(F)F)c3)nc3ncccc3c2=O)cc1
IC50 [2]: 0.0631 µM | IC50 [5]: 0.0631 µM

SMILES: O=CNC(=C(Cl)Cl)[P+](c1ccccc1)(c1ccccc1)c1ccccc1.[O-][Cl+3]([O-])([O-])[O-]
IC50 [8]: 27 µM

SMILES: CCCC[C@H]1C[C@@H](N(C)C(C)C)CC[C@H]1NC(=O)CNC(=O)c1cccc(C(F)(F)F)c1
IC50 [9]: 0.0025 µM

SMILES: C1CNCCNCCCN(CCCN2CCCNCCNCCCNCC2)CCNC1
Ki [1]: 0.18 µM

SMILES: C(CCCN1CCCNCCNCCCNCC1)CCN1CCCNCCNCCCNCC1
Ki [1]: 2.3 µM

Further lines, results first:

pIC50 [4]: 7.3
SMILES: COc1ccccc1Oc1cccc(CN2CCC(NC(=O)C3CC(=O)Nc4ccccc43)CC2)c1 (configuration not stated)

IC50 [2]: 0.0158 µM | IC50 [5]: 0.0158 µM
SMILES: CCNC(=O)c1cnc(N2CCN(C3CCN(Cc4ccc(Cl)cc4)CC3)[C@@H](CC)C2)c(Cl)c1

Ki [6]: 0.316 µM
SMILES: Cc1ccc(CN2CC[C@@H](NC(=O)CNC(=O)c3cccc(C(F)(F)F)c3)C2)c(C)c1

Ki [6]: 0.1 µM
SMILES: O=C(/C=C/c1ccc(Cl)c(Cl)c1)NCCCCCN1CCC(c2c[nH]c3ccc(O)cc23)CC1

pIC50 [4]: 7.8
SMILES: CCNS(=O)(=O)c1ccc(OC)cc1C1(O)CCN(Cc2cccc(Oc3ccccc3OC)c2)CC1

IC50 [7]: 0.0002 µM
SMILES: Cc1nnc(C(C)C)n1[C@H]1C[C@H]2CC[C@@H](C1)N2CC[C@H](NC(=O)C1CCC(F)(F)CC1)c1ccccc1 [MARAVIROC]

IC50 [8]: 0.016 µM
SMILES: CCO/N=C(\c1ccc(Br)cc1)C1CCN(C2(C)CCN(C(=O)c3c(C)cc[n+]([O-])c3C)CC2)CC1 [ANCRIVIROC]

Ki [1]: 8 µM
SMILES: C[C@H](NC(=O)[C@H](CCCNC(=N)N)NC(=O)c1ccc(CNCc2ccccn2)cc1)c1cccc2ccccc12

IC50 [7]: 0.0167 µM
SMILES: CCCCN1C(=O)[C@H](CC2CCCCC2)NC(=O)C12CCN(Cc1ccc(Oc3ccc(C(=O)O)cc3)cc1)CC2

IC50 [7]: 0.02 µM
SMILES: CC(=O)N1CCC(C(=O)N(CCCN2CCC(Cc3ccc(C(N)=O)cc3)CC2)c2ccc(C)c(Cl)c2)CC1

IC50 [10]: 2 µM
SMILES: O=C(C1=C(O)C(=O)N(c2nnc(SCc3ccc(Cl)cc3)s2)C1c1cccs1)c1cc2ccccc2o1 (configuration not stated)

pIC50 [2]: 4.5 | IC50 [7]: 0.019 µM | Ki [6]: 0.0631 µM
SMILES: Cc1ccc(-c2ccc3c(c2)C=C(C(=O)Nc2ccc(C[N+](C)(C)C4CCOCC4)cc2)CCC3)cc1.[Cl-]
